Data as given in US8728808B2, “Multiple inducible gene regulation system” (Intrexon Corporation, priority 2000, dated 2014).

Key:
[1] = target: T1, GAL4DmEcR-CDEF/VP16MmRXR-LmUSP-EFchimera (Drosophila melanogaster, UniProt P34021); experiment: Dual switch reporter assay in NIH3T3 cells, SEAP under 6XGAL4RE; type: cell-based; conditions: mouse NIH3T3 cells, 0.02, 0.1, 0.5, or 2.5 μM ligand, 48 hours, FIG. 1
T1 construct: C, D, E, and F domains from fruit fly Drosophila melanogaster EcR (“DmEcR-CDEF”); expressed in transfected cells; host or cells: mouse NIH3T3 cells
Text: (§1) A polynucleotide encoding the C, D, E, and F domains from fruit fly Drosophila melanogaster EcR (“DmEcR-CDEF”; SEQ ID NO: 1) was fused to a polynucleotide encoding a GAL4 DNA binding domain (“Gal4DNABD” or “Gal4 DBD”; SEQ ID NO: 2) and placed under the control of a cytomegalovirus (CMV) promoter/enhancer (SEQ ID NO: 3). A polynucleotide encoding the C, D, E, and F domains from spruce budworm Choristoneura fumiferana EcR (“CfEcR-CDEF”; SEQ ID NO: 4) was fused to a polynucleotide encoding a LexA DNA binding domain (“LexADNABD” or “LexADBD”; SEQ ID NO: 5) and placed under the control of a cytomegalovirus (CMV) promoter/enhancer (SEQ ID NO: 3). […]
(§2) DNAs corresponding to the dual switch constructs outlined in Examples 1.1 and 1.2 were transfected into mouse NIH3T3 cells (ATCC; Example 1.1) or CHO cells (ATCC; Example 1.2) as follows. […] One μg of reporter construct and 0.25 μg of each receptor construct of the receptor pair to be analyzed were added to the transfection mix. […]
(§3) Cells were harvested 48 hours after adding ligands and reporter activities were quantified using the Dual-luciferase™ reporter assay system from Promega Corporation. […] Luciferase activity was measured using Dual-luciferase™ reporter assay system from Promega Corporation following the manufacturer's instructions. […]

[2] = system: LexACfEcR-CDEF/VP16MmRXR-LmUSP-EFchimera; experiment: Dual switch reporter assay in NIH3T3 cells, luciferase under 8opLexARE; type: cell-based, Choristoneura fumiferana; conditions: mouse NIH3T3 cells, 0.02, 0.1, 0.5, or 2.5 μM ligand, 48 hours, FIG. 1
Text: as §1, §2, §3

[3] = system: GAL4CfEcR-DEF/VP16MmRXRα-EF; experiment: Transactivation of pFRLuc reporter in CHO cells through CfEcR; type: cell-based, Choristoneura fumiferana; conditions: hamster CHO cells, 0.1, 1, 5, or 10 μM ligand, 48 hours, FIG. 2
Protocol: (§4) This construct was prepared as follows. A polynucleotide encoding the D, E, and F domains from spruce budworm Choristoneura fumiferana EcR (“CfEcR-DEF”; SEQ ID NO: 14) was fused to a polynucleotide encoding a GAL4DNA binding domain (“GAL4 DBD”; SEQ ID NO: 2) and placed under the control of a cytomegalovirus (CMV) promoter/enhancer (SEQ ID NO: 3). A polynucleotide encoding the C, D and E domains from green leafhopper Nephotelix cincticeps ecdysone receptor (“NcEcR-CDE”; SEQ ID NO: 15) was fused to a polynucleotide encoding a GAL4DNA binding domain (“GAL4 DBD”; SEQ ID NO: 2) and placed under the control of a cytomegalovirus (CMV) promoter/enhancer (SEQ ID NO: 3). […]
as §2, §3

[4] = system: GAL4NcEcR-CDE/VP16MmRXRα-EF; experiment: Transactivation of pFRLuc reporter in CHO cells through NcEcR; type: cell-based, Nephotetix cincticeps; conditions: hamster CHO cells, 0.1, 1, 5, or 10 μM ligand, 48 hours, FIG. 2
Protocol: as §4, §2, §3

T1 sequence (P34021 other isoform, or with tags, fused parts or gaps): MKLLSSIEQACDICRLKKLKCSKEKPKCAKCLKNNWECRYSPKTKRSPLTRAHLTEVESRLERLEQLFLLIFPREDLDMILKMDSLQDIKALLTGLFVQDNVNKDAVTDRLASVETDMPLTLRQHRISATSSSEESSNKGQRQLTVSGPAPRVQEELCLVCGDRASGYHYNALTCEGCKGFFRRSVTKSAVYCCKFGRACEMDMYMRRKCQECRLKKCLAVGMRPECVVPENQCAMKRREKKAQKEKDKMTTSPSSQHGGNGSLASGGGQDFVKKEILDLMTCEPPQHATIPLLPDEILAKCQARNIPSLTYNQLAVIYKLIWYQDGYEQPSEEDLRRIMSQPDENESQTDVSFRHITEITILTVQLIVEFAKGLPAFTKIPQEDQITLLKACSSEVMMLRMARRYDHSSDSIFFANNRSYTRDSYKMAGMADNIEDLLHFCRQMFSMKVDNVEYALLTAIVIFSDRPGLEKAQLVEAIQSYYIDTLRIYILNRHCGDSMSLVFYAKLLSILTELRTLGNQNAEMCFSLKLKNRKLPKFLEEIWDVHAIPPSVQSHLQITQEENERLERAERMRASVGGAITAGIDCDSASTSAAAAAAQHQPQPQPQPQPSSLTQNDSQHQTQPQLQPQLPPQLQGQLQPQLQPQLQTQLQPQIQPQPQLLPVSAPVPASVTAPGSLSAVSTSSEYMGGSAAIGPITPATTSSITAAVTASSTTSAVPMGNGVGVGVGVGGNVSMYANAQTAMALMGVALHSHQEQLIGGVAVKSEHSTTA

Row | Structure (SMILES) | induction of SEAP reporter activity (GAL4DmEcR-CDEF switch) [1] | induction of luciferase reporter activity (LexACfEcR-CDEF switch) [2] | induction of luciferase reporter activity regulated by CfEcR-DEF [3] | induction of luciferase reporter activity regulated by NcEcR-CDE [4]
1 | CC(C)CC[C@@H](O)[C@](C)(O)[C@H]1CC[C@@]2(O)C3=CC(=O)[C@@H]4C[C@@H](O)[C@@H](O)C[C@]4(C)[C@H]3CC[C@]12C [PonA, ponasterone A] | SEAP reporter activity was induced | only SEAP reporter activity was induced | did not induce reporter gene expression | luciferase reporter activity regulated by NcEcR-DE was induced
2 | CCc1c(OC)cccc1C(=O)NN(C(=O)c1cc(C)cc(C)c1)C(C)(C)C [GS™-E, N-(2-ethyl-3-methoxybenzoyl)-N′-(3,5-dimethylbenzoyl)-N′-tert-butylhydrazine] | only luciferase activity was induced | luciferase activity was induced | luciferase activity regulated by CfEcR-DEF was induced | does not induce reporter gene expression
